From paper PMC10419174, “WR1065 conjugated to thiol-PEG polymers as novel anticancer prodrugs: broad spectrum efficacy, synergism, and drug resistance reversal” (Frontiers in Oncology, 2023)
Where “and” joins values, the source holds several entries; their conditions need not be identical. Equal entries are not always repeated.

System: Promyelocytic HL-60 leukemia cells
Assay type: cell-based
Description: The percentage of growth inhibition was calculated as follows: […]

Work on 4-star-PEG-S-S-WR1065 [4SP65] yielded a CC50 of 7.5 ± 2.1 µM, a GI50 (48-h treatment) of 1.9 ± 0.6 µM and an IC50 (48-h treatment) of 4.4 ± 0.9 µM. For the same substance, the LC99 (48-h treatment) was 10.2 ± 3.4 µM and the TGI (48-h treatment) was 4.7 ± 0.7 µM and 4.7 µM.
